Patent publication US6706663B2, “Herbicidal 3-heterocyclic substituted benzisothiazole and benzisoxazole compounds” (Wyeth, priority 2000, dated 2004)

What was measured:
[1] = tested on: ECHCG (Echinochloa crus-galli); assay: Preemergence herbicidal evaluation; assay type: in vivo, (L.) Beau; conditions: Rate 0.2500 kg/ha; preemergence; rated 4-5 weeks after treatment
From the text: (§1) Results of herbicide evaluation are expressed on a rating scale (0-9). The scale is based upon a visual observation of plant stand, vigor, malformation, size, chlorosis and overall plant appearance as compared with a control.
(§2) The preemergence herbicidal activity of the test compounds of the present invention is exemplified by the following tests in which the seeds of a variety of monocotyledonous and dicotyledonous plants are separately mixed with potting soil and planted on top of approximately one inch of soil in separate pint cups. […] The treated cups are then placed on greenhouse benches, watered and cared for in accordance with conventional greenhouse procedures. From four to five weeks after treatment, the tests are terminated and each cup is examined and rated according to the rating system provided in Example 87. The plant species used and the compounds evaluated are the same as those shown in Example 87.

SETVI (Setaria viridis) [2] = assay: Preemergence herbicidal evaluation; assay type: in vivo, (L.) Beau; conditions: Rate 0.2500 kg/ha; preemergence; rated 4-5 weeks after treatment
From the text: as §1, §2

[3] = tested on: ECHCG (Echinochloa crus-galli); assay: Postemergence herbicidal evaluation; assay type: in vivo, (L.) Beau
Protocol: (§3) In the tests, seedling plants are grown in jiffy flats for about two weeks. […] After spraying, the plants are placed on greenhouse benches and are cared for in accordance with conventional greenhouse procedures. From four to five weeks after treatment, the seedling plants are examined and rated according to the rating system set forth below. Where more than one test is involved for a given compound, the data are averaged.
as §1

[4] = tested on: CYPSE (Cyperus serotinus); assay: Flooded paddy, preemergence weed control; assay type: in vivo, Rottb.; conditions: rate 0.1250 kg/ha, rated 3-4 weeks after treatment, 0-9 rating scale
Protocol: as §1
Preemergence herbicidal activity under flooded paddy conditions is determined as follows: plant seeds or propagating organs are planted in the top 0.5 cm of silt loam soil in 32 oz. plastic containers with a diameter of 10.5 cm and no drainage holes. Water is added to these containers and maintained at 1.5 to 3 cm above the soil surface for the duration of the experiment. The test compounds are applied as aqueous/acetone mixtures 50/50 v/v pipetted directly into the flood water to give the equivalent of about 0.0080 to 0.1250 kg/ha of active ingredient. The treated containers are placed on greenhouse benches and cared for in accordance with conventional greenhouse procedures. Three to four weeks after treatment, the test is terminated and each container is examined and herbicidal effect rated according to the rating system provided in Example 87.

[5] = tested on: ABUTH (Abutilon theophrasti); assay: Preemergence herbicidal evaluation; assay type: in vivo, Medic.; conditions: Rate 0.2500 kg/ha; preemergence; rated 4-5 weeks after treatment
From the text: as §1, §2

[6] = tested on: MOOVA (Monochoria vaginalis); assay: Flooded paddy, preemergence weed control; assay type: in vivo, Presl.; conditions: rate 0.1250 kg/ha, rated 3-4 weeks after treatment, 0-9 rating scale
Protocol: as §1
(§4) Preemergence herbicidal activity under flooded paddy conditions is determined as follows: plant seeds or propagating organs are planted in the top 0.5 cm of silt loam soil in 32 oz. plastic containers with a diameter of 10.5 cm and no drainage holes. Water is added to these containers and maintained at 1.5 to 3 cm above the soil surface for the duration of the experiment. […] The treated containers are placed on greenhouse benches and cared for in accordance with conventional greenhouse procedures.

ORYSAT (Rice, Tebonnet) [7] = assay: Postemergence herbicidal evaluation; assay type: in vivo, Oryza sativa, (L.) Tebonnet
Protocol: as §3, §1

[8] = tested on: GLXMAW (Soybean, Williams); assay: Preemergence herbicidal evaluation; assay type: in vivo, Glycine max, (L.) Merr. cv Williams; conditions: Rate 0.2500 kg/ha; preemergence; rated 4-5 weeks after treatment
From the text: as §1, §2

[9] = tested on: IPOHE (Ipomoea hederacea); assay: Postemergence herbicidal evaluation; assay type: in vivo, (L.) Jacq.
Protocol: as §3, §1

[10] = tested on: TRZAWR (Wheat, Winter, cv Riband); assay: Preemergence herbicidal evaluation; assay type: in vivo, Triticum aestivum; conditions: Rate 0.2500 kg/ha; preemergence; rated 4-5 weeks after treatment
From the text: as §1, §2

ZEAMX (Corn, Field) [11] = assay: Postemergence herbicidal evaluation; assay type: in vivo, Zea mays, L.
Protocol: as §3, §1

[12] = tested on: AMBEL (Ambrosia artemisifolia); assay: Postemergence herbicidal evaluation; assay type: in vivo, L.
Protocol: as §3, §1

[13] = tested on: CHEAL (Chenopodium album); assay: Postemergence herbicidal evaluation; assay type: in vivo, L.
Protocol: as §3, §1

[14] = tested on: CASOB (Cassia obtusifolia); assay: Postemergence herbicidal evaluation; assay type: in vivo, L.
Protocol: as §3, §1

[15] = tested on: TRZAWR (Wheat, Winter, cv Riband); assay: Postemergence herbicidal evaluation; assay type: in vivo, Triticum aestivum
Protocol: as §3, §1

[16] = tested on: ABUTH (Abutilon theophrasti); assay: Postemergence herbicidal evaluation; assay type: in vivo, Medic.
Protocol: as §3, §1

ORYSAT (Rice, Tebonnet) [17] = assay: Preemergence herbicidal evaluation; assay type: in vivo, Oryza sativa, (L.) Tebonnet; conditions: Rate 0.2500 kg/ha; preemergence; rated 4-5 weeks after treatment
From the text: as §1, §2

ZEAMX (Corn, Field) [18] = assay: Preemergence herbicidal evaluation; assay type: in vivo, Zea mays, L.; conditions: Rate 0.2500 kg/ha; preemergence; rated 4-5 weeks after treatment
From the text: as §1, §2

[19] = tested on: AMBEL (Ambrosia artemisifolia); assay: Preemergence herbicidal evaluation; assay type: in vivo, L.; conditions: Rate 0.2500 kg/ha; preemergence; rated 4-5 weeks after treatment
From the text: as §1, §2

[20] = tested on: CHEAL (Chenopodium album); assay: Preemergence herbicidal evaluation; assay type: in vivo, L.; conditions: Rate 0.2500 kg/ha; preemergence; rated 4-5 weeks after treatment
From the text: as §1, §2

[21] = tested on: CASOB (Cassia obtusifolia); assay: Preemergence herbicidal evaluation; assay type: in vivo, L.; conditions: Rate 0.2500 kg/ha; preemergence; rated 4-5 weeks after treatment
From the text: as §1, §2

[22] = tested on: ECHORC (Echinochloa oryzoides); assay: Flooded paddy, preemergence weed control; assay type: in vivo, Echinochloa oryzoides (Ard.) Fritsch.; conditions: rate 0.1250 kg/ha, rated 3-4 weeks after treatment, 0-9 rating scale
Protocol: as §1, §4

ORYSAT (Rice, Tebonnet) [23] = assay: Flooded paddy, post-transplant rice tolerance; assay type: in vivo, Oryza sativa, (L.) Tebonnet; conditions: flooded paddy, post-transplant rice; rate 0.1250 kg/ha; rated 3-4 weeks after treatment; 0-9 rating scale
Protocol: as §1
The tolerance of transplanted rice to post-transplanted herbicide application is determined as follows: two ten-day-old rice seedlings (cv. Tebonnet) are transplanted into silt loam soil in 32 oz. plastic containers with a diameter of 10.5 cm and no drainage holes. After transplanting, the containers are flooded and the water level is maintained at 1.5 to 3 cm above the soil surface. […] The treated containers are placed on greenhouse benches, watered such that the water level is maintained as stated above, and cared for in accordance with conventional greenhouse procedures.

CYPIR (Cyperus iria) = assay: Flooded paddy, preemergence weed control; assay type: in vivo; conditions: rate 0.1250 kg/ha, rated 3-4 weeks after treatment, 0-9 rating scale
Protocol: as §1, §4

[24] = tested on: GLXMAW (Soybean, Williams); assay: Postemergence herbicidal evaluation; assay type: in vivo, Glycine max, (L.) Merr. cv Williams
Protocol: as §3, §1

GALAP (Galium aparine) [25] = assay: Postemergence herbicidal evaluation; assay type: in vivo
Protocol: as §3, §1

[26] = tested on: IPOHE (Ipomoea hederacea); assay: Preemergence herbicidal evaluation; assay type: in vivo, (L.) Jacq.; conditions: Rate 0.2500 kg/ha; preemergence; rated 4-5 weeks after treatment
From the text: as §1, §2

SETVI (Setaria viridis) [27] = assay: Postemergence herbicidal evaluation; assay type: in vivo, (L.) Beau
Protocol: In the tests, seedling plants are grown in jiffy flats for about two weeks. The test compounds are dispersed in 50/50 acetone/water mixtures containing 0.5% TWEEN® 20, a polyoxyethylene sorbitan monolaurate surfactant of Atlas Chemical Industries, in sufficient quantities to provide the equivalent of about 0.0040 kg to 1.000 kg per hectare of active compound when applied to the plants through a spray nozzle operating at 40 psi for a predetermined time. After spraying, the plants are placed on greenhouse benches and are cared for in accordance with conventional greenhouse procedures. From four to five weeks after treatment, the seedling plants are examined and rated according to the rating system set forth below. Where more than one test is involved for a given compound, the data are averaged.
as §1

[28] = tested on: SAGPY (Sagittaria pygmaea); assay: Flooded paddy, preemergence weed control; assay type: in vivo, L.; conditions: rate 0.1250 kg/ha, rated 3-4 weeks after treatment, 0-9 rating scale
Protocol: as §1, §4

GALAP (Galium aparine) [29] = assay: Preemergence herbicidal evaluation; assay type: in vivo; conditions: Rate 0.2500 kg/ha; preemergence; rated 4-5 weeks after treatment
From the text: as §1, §2

Compound | ECHCG preemergence herbicidal rating [1] | SETVI preemergence herbicidal rating (SETVI (Setaria viridis) [2]) | herbicidal rating, CYPSE [4] | ABUTH preemergence herbicidal rating [5] | herbicidal rating, MOOVA [6] | GLXMAW preemergence herbicidal rating [8] | TRZAWR preemergence herbicidal rating [10] | ORYSAT preemergence herbicidal rating (ORYSAT (Rice, Tebonnet) [17]) | ZEAMX preemergence herbicidal rating (ZEAMX (Corn, Field) [18]) | AMBEL preemergence herbicidal rating [19] | CHEAL preemergence herbicidal rating [20] | CASOB preemergence herbicidal rating [21] | herbicidal rating, ECHORC [22] | herbicidal rating, ORYSAT (rice tolerance) (ORYSAT (Rice, Tebonnet) [23]) | herbicidal rating, CYPIR (CYPIR (Cyperus iria)) | IPOHE preemergence herbicidal rating [26] | herbicidal rating, SAGPY [28] | Postemergence herbicidal rating, ECHCG ([3]; rate 0.0620 kg/ha) | Postemergence herbicidal rating, ORYSAT (ORYSAT (Rice, Tebonnet) [7]; rate 0.0620 kg/ha) | Postemergence herbicidal rating, IPOHE ([9]; rate 0.0620 kg/ha) | also measured
Cn1cccc1-c1nsc2ccc(-n3c(=O)cc(C(F)(F)F)n(C)c3=O)cc12 [Compound 6, 1-methyl-3-[3-(1-methylpyrrol-2-yl)-1,2-benzisothiazol-5-yl]-6-(trifluoromethyl)uracil] | 9.0 | 8.0 | 9.0 | 9.0 | 9.0 | 4.0 | 2.0 | 2.0 | 5.0 | 9.0 | 9.0 | 0.0 | 2.0 | 3.0 | 9.0 | 9.0 | 4.0 |  |  |  | Postemergence herbicidal rating, ECHCG ([3]; rate 0.1250 kg/ha): 0.0; Postemergence herbicidal rating, ORYSAT (ORYSAT (Rice, Tebonnet) [7]; rate 0.1250 kg/ha): 3.0; Postemergence herbicidal rating, IPOHE ([9]; rate 0.1250 kg/ha): 9.0; Postemergence herbicidal rating, ZEAMX (ZEAMX (Corn, Field) [11]; rate 0.1250 kg/ha): 5.0; Postemergence herbicidal rating, AMBEL ([12]; rate 0.1250 kg/ha): 3.0; Postemergence herbicidal rating, CHEAL ([13]; rate 0.1250 kg/ha): 4.0; Postemergence herbicidal rating, CASOB ([14]; rate 0.1250 kg/ha): 0.0; Postemergence herbicidal rating, TRZAWR ([15]; rate 0.1250 kg/ha): 4.5; Postemergence herbicidal rating, ABUTH ([16]; rate 0.1250 kg/ha): 9.0; Postemergence herbicidal rating, GLXMAW ([24]; rate 0.1250 kg/ha): 7.5; Postemergence herbicidal rating, GALAP (GALAP (Galium aparine) [25]; rate 0.1250 kg/ha): 4.0; Postemergence herbicidal rating, SETVI (SETVI (Setaria viridis) [27]; rate 0.1250 kg/ha): 0.0
Cn1c(C(F)(F)F)cc(=O)n(-c2ccc3snc(-c4cccnc4)c3c2)c1=O [Compound 11, 1-methyl-3-[3-(3-pyridyl)-1,2-benzisothiazol-5-yl]-6-(trifluoromethyl)uracil] | 8.0 | 9.0 | 0.0 | 9.0 | 9.0 | 7.5 | 4.0 | 5.0 | 5.5 | 9.0 | 9.0 | 9.0 | 5.0 | 3.0 | 9.0 | 7.0 | 0.0 | 0.0 | 3.5 | 9.0 | Postemergence herbicidal rating, ZEAMX (ZEAMX (Corn, Field) [11]; rate 0.0620 kg/ha): 5.5; Postemergence herbicidal rating, AMBEL ([12]; rate 0.0620 kg/ha): 9.0; Postemergence herbicidal rating, CHEAL ([13]; rate 0.0620 kg/ha): 8.0; Postemergence herbicidal rating, CASOB ([14]; rate 0.0620 kg/ha): 1.0; Postemergence herbicidal rating, TRZAWR ([15]; rate 0.0620 kg/ha): 3.5; Postemergence herbicidal rating, ABUTH ([16]; rate 0.0620 kg/ha): 9.0; GALAP preemergence herbicidal rating (GALAP (Galium aparine) [29]): 9.0; Postemergence herbicidal rating, GLXMAW ([24]; rate 0.0620 kg/ha): 6.5; Postemergence herbicidal rating, GALAP (GALAP (Galium aparine) [25]; rate 0.0620 kg/ha): 6.0; Postemergence herbicidal rating, SETVI (SETVI (Setaria viridis) [27]; rate 0.0620 kg/ha): 7.0
C[C@@H]1O[C@@H]1c1nsc2ccc(-n3c(=O)cc(C(F)(F)F)n(C)c3=O)cc12 [Compound 13, 3-[3-[(1R,2S)-1,2-epoxypropyl]-1,2-benzisothiazol-5-yl]-1-methyl-6-(trifluoromethyl)uracil] | 9.0 | 9.0 | 6.5 | 9.0 | 9.0 | 7.5 | 5.0 | 7.5 | 7.0 | 9.0 | 9.0 | 9.0 | 6.0 | 7.5 | 8.0 | 9.0 | 4.0 | 3.0 | 3.0 | 7.0 | Postemergence herbicidal rating, ZEAMX (ZEAMX (Corn, Field) [11]; rate 0.0620 kg/ha): 5.0; Postemergence herbicidal rating, AMBEL ([12]; rate 0.0620 kg/ha): 9.0; Postemergence herbicidal rating, CHEAL ([13]; rate 0.0620 kg/ha): 6.0; Postemergence herbicidal rating, CASOB ([14]; rate 0.0620 kg/ha): 5.0; Postemergence herbicidal rating, TRZAWR ([15]; rate 0.0620 kg/ha): 3.0; Postemergence herbicidal rating, ABUTH ([16]; rate 0.0620 kg/ha): 9.0; GALAP preemergence herbicidal rating (GALAP (Galium aparine) [29]): 9.0; Postemergence herbicidal rating, GLXMAW ([24]; rate 0.0620 kg/ha): 7.0; Postemergence herbicidal rating, GALAP (GALAP (Galium aparine) [25]; rate 0.0620 kg/ha): 9.0; Postemergence herbicidal rating, SETVI (SETVI (Setaria viridis) [27]; rate 0.0620 kg/ha): 7.0
